According to PubChem BioAssay (NCI):
“And” between values parts separate entries of the source, which are not always exact repeats. Equal values may be shown once.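 Results reflect a 48-hour exposure of cells in 96-well plates to compound at five concentrations. GI50 = concentration required for 50% inhibition of growth. TGI denotes the concentration required for complete inhibition of growth.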

Assays:
Test in all cases: NCI-60 cell line screen, 48 h
SF-539 CNS = tested on: SF-539 CNS
IGROV1 ovarian = tested on: IGROV1 ovarian
M14 melanoma = tested on: M14 melanoma
HCC-2998 colon = tested on: HCC-2998 colon
SR leukemia = tested on: SR leukemia
MDA-MB-231 breast = tested on: MDA-MB-231 breast
LOX IMVI melanoma = tested on: LOX IMVI melanoma
HL-60(TB) leukemia = tested on: HL-60(TB) leukemia
T-47D breast = tested on: T-47D breast
786-0 renal = tested on: 786-0 renal
SNB-19 CNS = tested on: SNB-19 CNS
SW-620 colon = tested on: SW-620 colon
MDA-N = tested on: MDA-N
SF-295 CNS = tested on: SF-295 CNS
HS 578T breast = tested on: HS 578T breast
MDA-MB-435 = tested on: MDA-MB-435
MCF7 breast = tested on: MCF7 breast
TK-10 renal = tested on: TK-10 renal
HOP-62 NSCLC = tested on: HOP-62 NSCLC

Structure (SMILES)	TGI (SF-539 CNS) [µM]	TGI (IGROV1 ovarian) [µM]	TGI (M14 melanoma)	TGI (HCC-2998 colon)	TGI (SR leukemia) [µM]	TGI (MDA-MB-231 breast) [µM]	TGI (LOX IMVI melanoma) [µM]	TGI (HL-60(TB) leukemia) [µM]	TGI (T-47D breast) [µM]	TGI (786-0 renal) [µM]	TGI (SNB-19 CNS) [µM]	TGI (SW-620 colon) [µM]	TGI (MDA-N) [µM]	TGI (SF-295 CNS)	TGI (HS 578T breast) [µM]	TGI (MDA-MB-435) [µM]	TGI (MCF7 breast) [µM]	TGI (TK-10 renal) [µM]	TGI (HOP-62 NSCLC) [µM]	GI50 (SR leukemia) [µM]
CC(=O)OCC1=CC2OC(=O)C3=COC(OC4OC(CO)C(O)C(O)C4O)C1C32 (configuration not stated)	> 100	> 100	> 100 µM	> 100 µM	> 100	> 100	> 100	> 100	> 100	> 100	> 100	> 100	> 100	> 100 µM	> 100	> 100	> 100	> 100	> 100	–
O=C1CCCCN1	> 1120	> 1120	–	> 1120 µM	–	–	> 1120	> 1120	–	–	> 1120	> 1120	–	> 1120 µM	–	–	> 1120	–	> 1120	–
CN(C)c1ccc(C2CC(=O)CC(c3ccc(N(C)C)cc3)C23C(=O)NC(=S)NC3=O)cc1 (configuration not stated)	> 100	–	> 100 µM	> 100 µM	> 100	> 100	> 100	> 100	> 100	> 100	> 100	> 100	> 100	> 100 µM	> 100	> 100	> 100	> 100	45.6	–
O=C1/C(=C/C=C/c2ccccc2)N=C(c2ccccc2)N1c1ccc(S(=O)(=O)Nc2nccs2)cc1	45.9	44.5	> 100 µM	–	> 100	–	55.1	> 100	> 100	> 100	> 100	> 100	> 100	> 100 µM	> 100	> 100	> 100	> 100	> 100	–
C1=CC=C2NCCc3cccc(c3)CCNC3=CC=CC=CC3=NCCCCCCN=C2C=C1	23.5	> 100	29.8 µM	–	82.4	–	26.9	20.9	–	–	> 100	80.7	–	49.6 µM	–	–	–	–	34.4	–
CC1(O)C2(c3ccccc3)CCC[N+]1(C)CC2 (configuration not stated)	–	> 100	> 100 µM	> 100 µM	–	> 100	> 100	> 100	> 100	–	> 100	> 100	> 100	> 100 µM	> 100	> 100	> 100	> 100	> 100	–
CC1=C[C@H]([C@H]2C=C(C)C(C(N)=O)=CN2Cc2c(Cl)cccc2Cl)N(Cc2c(Cl)cccc2Cl)C=C1C(N)=O	> 75	–	> 75 µM	> 75 µM	> 75	> 75	> 75	> 75	> 75	> 75	> 75	> 75	> 75	> 75 µM	> 75	> 75	> 75	> 75	> 75	–
CC1=C(SCCO)C(=O)c2ccccc2C1=O	24.9	27.3	27.6 µM	30.4 µM	> 100	27.4	24.6	> 100	20.5	–	79.6	33.1	15.6	32.8 µM	40.4	23.9	12.6	30.4	29.4	–
Nc1ncnc2c1ncn2[C@@H]1O[C@H](COP(=O)(O)OP(=O)(O)OC[C@H]2O[C@@H](OCCCO)[C@H](O)[C@@H]2O)[C@@H](O)[C@H]1O	> 100	> 100	> 100 µM	> 100 µM	> 100	> 100	> 100	> 100	> 100	> 100	> 100	> 100	> 100	> 100 µM	> 100	> 100	> 100	> 100	> 100	–
CN(CCNC(=O)c1nn(-c2ccc(Cl)cc2Cl)c2c1Cc1ccccc1-2)CCNC(=O)c1nn(-c2ccc(Cl)cc2Cl)c2c1Cc1ccccc1-2	3.68	> 100	3.46 µM	3.26 µM	–	8.88	–	3.57	> 30.2	4.47	> 100	4.88	4.89	5.19 µM	32.5	2.43	8.31	24.6	> 45.8	–
CC[C@@]1(O)C[C@H](OC2CC(N(C)C)C(OC3CC(O)C(OC4CCC(=O)C(C)O4)C(C)O3)C(C)O2)c2c(cc3c(c2O)C(=O)c2c(O)cccc2C3=O)C1C(=O)OC (some centres not stated)	–	–	0.237 µM and 0.769 µM	0.598 µM and 1.88 µM	1.23	0.058	–	–	–	–	–	–	0.149	1.1 µM and 1.89 µM	0.618	–	–	–	1.58	0.00493
O=S(=O)(O)c1cc(S(=O)(=O)O)c2c(N=Nc3ccc(S(=O)(=O)O)c4ccccc34)c(O)ccc2c1	–	> 100	> 100 µM	–	–	> 100	> 100	> 100	> 100	> 100	> 100	> 100	> 100	> 100 µM	> 100	> 100	–	> 100	> 100	–
CCCCC(=O)c1c(O)ccc2c(C)cc(=O)oc12	> 100	> 100	> 100 µM	> 100 µM	> 100	> 100	> 100	> 100	51.4	> 100	> 100	> 100	> 100	> 100 µM	> 100	> 100	> 100	> 100	> 100	–
[C-]#[N+]C(=C\c1ccc(O)cc1)/C(=C/c1ccc(O)cc1)[N+]#[C-]	–	> 23.6	> 20.4 µM	> 50.6 µM	5.86	6.71	5.16	> 24	12.1	> 100	> 100	> 34.3	3.35	> 100 µM	–	> 19.8	> 36.7	> 100	> 100	–
